Source: PubChem BioAssay AID248 (DTP/NCI, 2004)
Values joined by “and” are separate entries in the source; they are usually repeats but may differ in a detail not shown here. Equal entries are not always repeated. Inconclusive results and toxic doses are left out. Rule as the data show it: active = T/C of 150% or more; inactive = T/C below 125%.

System: L1210 leukemia ip in BDF1 mice, survival T/C
Test: NCI In Vivo Anticancer Drug Screen. Data for tumor model L1210 Leukemia (intraperitoneal) in B6D2F1 (BDF1) mice
Conditions: endpoint: mean survival time, higher = longer survival
In short: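 Mice bearing the transplanted tumor received compound or vehicle. Survival of the treated group was divided by that of the vehicle-treated control group to give the ratio.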

[1] = dose: 100.0 mg/kg/injection, schedule: Q01DX001 (ip), vehicle: saline
[2] = dose: 100.0 mg/kg/injection, schedule: Q04DX002 (ip), vehicle: saline with Tween-80
[3] = dose: 200.0 mg/kg/injection, schedule: Q04DX002 (ip), vehicle: saline with Tween-80
[4] = dose: 400.0 mg/kg/injection, schedule: Q04DX002 (ip), vehicle: saline with Tween-80
[5] = dose: 100.0 mg/kg/injection, schedule: Q01DX009 (ip), vehicle: saline
[6] = dose: 200.0 mg/kg/injection, schedule: Q01DX001 (ip), vehicle: saline
[7] = dose: 400.0 mg/kg/injection, schedule: Q01DX001 (ip), vehicle: saline
[8] = dose: 100.0 mg/kg/injection, schedule: Q04DX003 (ip), vehicle: saline with Tween-80
[9] = dose: 75.0 mg/kg/injection, schedule: Q01DX001 (ip), vehicle: saline
[10] = dose: 150.0 mg/kg/injection, schedule: Q01DX001 (ip), vehicle: saline

Measured: T/C

Sc1ccccc1Cl
inactive: dose: 12.5 mg/kg/injection, schedule: Q01DX009 (ip), vehicle: Klucel (hydroxypropylcellulose) (HPC) 97 % of control | dose: 25.0 mg/kg/injection, schedule: Q01DX009 (ip), vehicle: Klucel (hydroxypropylcellulose) (HPC) 95 % of control | dose: 25.0 mg/kg/injection, schedule: Q04DX003 (ip), vehicle: Klucel (hydroxypropylcellulose) (HPC) 103 % of control | dose: 50.0 mg/kg/injection, schedule: Q01DX009 (ip), vehicle: Klucel (hydroxypropylcellulose) (HPC) 97 % of control | dose: 50.0 mg/kg/injection, schedule: Q04DX003 (ip), vehicle: Klucel (hydroxypropylcellulose) (HPC) 103 % of control | dose: 100.0 mg/kg/injection, schedule: Q04DX003 (ip), vehicle: Klucel (hydroxypropylcellulose) (HPC) 102 % of control

CCCCCN(CCCCC)CC(O)C1c2ccccc2Cc2ccccc21 (stereo unspecified)
inactive: dose: 5.0 mg/kg/injection, schedule: Q01DX001 (ip), vehicle: saline 102 % of control | dose: 10.0 mg/kg/injection, schedule: Q01DX001 (ip), vehicle: saline 98 % of control | dose: 20.0 mg/kg/injection, schedule: Q01DX001 (ip), vehicle: saline 102 % of control | dose: 40.0 mg/kg/injection, schedule: Q01DX001 (ip), vehicle: saline 104 % of control | [1] 101 % of control

CC1=C(C#N)C(C)(C)c2ccccc21
inactive: [2] 110 % of control | [3] 100 % of control | [4] 100 % of control

CCC#CC#CCC
inactive: [1] 97 % of control | [5] 96 % of control | [6] 108 % of control | [7] 112 % of control

O=[N+]([O-])c1ccccc1N=Nc1c(O)[nH]c2ccc(Cl)cc12
inactive: [1] 95 % of control | [7] 92 % of control

COC(=O)c1ccc(N(C)CCC(=O)COC(C)=O)cc1
inactive: [1] 103 % of control | [6] 97 % of control | [7] 95 % of control

O=C(C(=O)c1ccc(Cl)cc1)c1ccc(Cl)cc1
inactive: dose: 1.56 mg/kg/injection, schedule: Q01DX009 (ip), vehicle: other 106 % of control | dose: 3.13 mg/kg/injection, schedule: Q01DX009 (ip), vehicle: other 95 % of control | dose: 6.25 mg/kg/injection, schedule: Q01DX009 (ip), vehicle: other 97 % of control and 92 % of control | dose: 25.0 mg/kg/injection, schedule: Q01DX009 (ip), vehicle: other 88 % of control | dose: 50.0 mg/kg/injection, schedule: Q01DX001 (ip), vehicle: carboxymethylcellulose (CMC) 94 % of control | dose: 100.0 mg/kg/injection, schedule: Q01DX001 (ip), vehicle: carboxymethylcellulose (CMC) 94 % of control | [8] 86 % of control | dose: 200.0 mg/kg/injection, schedule: Q01DX001 (ip), vehicle: carboxymethylcellulose (CMC) 89 % of control | dose: 200.0 mg/kg/injection, schedule: Q04DX003 (ip), vehicle: saline with Tween-80 88 % of control | dose: 400.0 mg/kg/injection, schedule: Q01DX001 (ip), vehicle: carboxymethylcellulose (CMC) 92 % of control | dose: 400.0 mg/kg/injection, schedule: Q04DX003 (ip), vehicle: saline with Tween-80 88 % of control

CCCCCCCCCC(=O)Nc1c(C)cccc1C
inactive: [2] 94 % of control | [3] 111 % of control | [4] 94 % of control

O=NO.[Co].[NH2-].[NH2-].[NH2-].[NH2-].[NH2-]
inactive: dose: 25.0 mg/kg/injection, schedule: Q04DX003 (ip), vehicle: saline 101 % of control

CCCCCCCCCCCCCCCCOS(=O)(=O)O
inactive: dose: 37.5 mg/kg/injection, schedule: Q04DX003 (ip), vehicle: saline 103 % of control | [9] 106 % of control | dose: 75.0 mg/kg/injection, schedule: Q04DX003 (ip), vehicle: saline 97 % of control | [10] 90 % of control | dose: 150.0 mg/kg/injection, schedule: Q04DX003 (ip), vehicle: saline 96 % of control

CCCOc1cccc(N)c1
inactive: dose: 50.0 mg/kg/injection, schedule: Q01DX001 (ip), vehicle: saline 96 % of control | [1] 91 % of control | [6] 93 % of control

NC(CCl)=NCCCCN=C(N)CCl
inactive: dose: 12.5 mg/kg/injection, schedule: Q01DX009 (ip), vehicle: saline 108 % of control | dose: 12.5 mg/kg/injection, schedule: Q04DX002 (ip), vehicle: saline 100 % of control | dose: 25.0 mg/kg/injection, schedule: Q01DX009 (ip), vehicle: saline 101 % of control | dose: 25.0 mg/kg/injection, schedule: Q04DX002 (ip), vehicle: saline 124 % of control

CC(=O)OCCn1c([N+](=O)[O-])cnc1/C=[N+](\[O-])C1CCCCC1
inactive: dose: 100.0 mg/kg/injection, schedule: Q04DX002 (ip), vehicle: Klucel (hydroxypropylcellulose) (HPC) 107 % of control | dose: 200.0 mg/kg/injection, schedule: Q04DX002 (ip), vehicle: Klucel (hydroxypropylcellulose) (HPC) 100 % of control | dose: 400.0 mg/kg/injection, schedule: Q04DX002 (ip), vehicle: Klucel (hydroxypropylcellulose) (HPC) 103 % of control

O=c1[nH]cnc2c1ncn2C1CCCC1
inactive: dose: 18.12 mg/kg/injection, schedule: Q01DX Z (ip), vehicle: carboxymethylcellulose (CMC) 98 % of control | dose: 36.25 mg/kg/injection, schedule: Q01DX Z (ip), vehicle: carboxymethylcellulose (CMC) 98 % of control | dose: 36.25 mg/kg/injection, schedule: Q01DX Z (oral), vehicle: carboxymethylcellulose (CMC) 110 % of control | dose: 72.5 mg/kg/injection, schedule: Q01DX Z (ip), vehicle: carboxymethylcellulose (CMC) 93 % of control | dose: 72.5 mg/kg/injection, schedule: Q01DX Z (oral), vehicle: carboxymethylcellulose (CMC) 98 % of control | dose: 145.0 mg/kg/injection, schedule: Q01DX Z (ip), vehicle: carboxymethylcellulose (CMC) 98 % of control | dose: 145.0 mg/kg/injection, schedule: Q01DX Z (oral), vehicle: carboxymethylcellulose (CMC) 102 % of control | dose: 290.0 mg/kg/injection, schedule: Q01DX Z (oral), vehicle: carboxymethylcellulose (CMC) 110 % of control

O=C(NO)N/N=C/C=N/NC(=O)NO
inactive: [9] 100 % of control | [10] 100 % of control | dose: 300.0 mg/kg/injection, schedule: Q01DX001 (ip), vehicle: saline 107 % of control

O=C(NCCCCCCCCCCCCNC(=O)Nc1ccc(C2=NCC(O)CN2)cc1)Nc1ccc(C2=NCC(O)CN2)cc1 (stereo unspecified)
inactive: dose: 62.5 mg/kg/injection, schedule: Q01DX Z (ip), vehicle: carboxymethylcellulose (CMC) 113 % of control | dose: 250.0 mg/kg/injection, schedule: Q01DX Z (ip), vehicle: carboxymethylcellulose (CMC) 122 % of control

CC1=NN(c2ccccc2)C(=O)C1(Br)Br
inactive: [8] 96 % of control

CCCc1nc2c(nc1C)C(=O)C=CC2=O
inactive: dose: 9.5 mg/kg/injection, schedule: Q01DX001 (ip), vehicle: other 98 % of control

CC1SC(=S)N(c2ccccc2)C1=O (stereo unspecified)
inactive: dose: 100.0 mg/kg/injection, schedule: Q01DX009 (ip), vehicle: saline with Tween-80 92 % of control | dose: 200.0 mg/kg/injection, schedule: Q01DX009 (ip), vehicle: saline with Tween-80 106 % of control

COc1ccccc1N=Nc1c(O)n(-c2ccc(C)cc2)c(=S)n(-c2ccccc2)c1=O
inactive: dose: 50.0 mg/kg/injection, schedule: Q01DX001 (ip), vehicle: Klucel (hydroxypropylcellulose) (HPC) 94 % of control | dose: 100.0 mg/kg/injection, schedule: Q01DX001 (ip), vehicle: Klucel (hydroxypropylcellulose) (HPC) 87 % of control | dose: 200.0 mg/kg/injection, schedule: Q01DX001 (ip), vehicle: Klucel (hydroxypropylcellulose) (HPC) 89 % of control

FC(F)c1nc2nc(Cl)c(Cl)nc2[nH]1
inactive: dose: 25.0 mg/kg/injection, schedule: Q01DX009 (ip), vehicle: saline with Tween-80 100 % of control | dose: 25.0 mg/kg/injection, schedule: Q04DX003 (ip), vehicle: saline with Tween-80 101 % of control | dose: 50.0 mg/kg/injection, schedule: Q01DX009 (ip), vehicle: saline with Tween-80 105 % of control | dose: 50.0 mg/kg/injection, schedule: Q04DX003 (ip), vehicle: saline with Tween-80 97 % of control | [8] 102 % of control and 106 % of control

CC(=O)Nc1ccc(CCCCc2cccc(C#N)c2)cc1
inactive: dose: 50.0 mg/kg/injection, schedule: Q01DX009 (ip), vehicle: saline 95 % of control | [5] 100 % of control | dose: 200.0 mg/kg/injection, schedule: Q01DX009 (ip), vehicle: saline 97 % of control
